The nature of the first data set: in vivo. The following applies: Sprague-Dawley, rat, po.
Broadly, the half-life is the time needed for the level to fall by half in the phase considered. For `CC(C)=CCC[C@](C)(O[C@@H]1O[C@H](CO)[C@@H](O)[C@H](O)[C@H]1O)[C@H]1CC[C@]2(C)[C@@H]1[C@H](O)C[C@@H]1[C@@]3(C)CC[C@H](O[C@@H]4O[C@H](CO)[C@@H](O)[C@H](O)[C@H]4O)C(C)(C)[C@@H]3CC[C@]12C` [Ginsenoside F2], the Tmax turned out to be 0.67 h and the half-life was 6.23 ± 2.89 h.

Take `CC(C)=CCC[C@](C)(O)[C@H]1CC[C@]2(C)[C@@H]1[C@H](O)C[C@@H]1[C@@]3(C)CC[C@H](O)C(C)(C)[C@@H]3[C@@H](O[C@@H]3O[C@H](CO)[C@@H](O)[C@H](O)[C@H]3O[C@@H]3O[C@H](CO)[C@@H](O)[C@H](O)[C@H]3O)C[C@]12C` [Ginsenoside Rf]: the Tmax amounted to 0.67 h and the half-life was 6.12 ± 3.53 h.

For `COC[C@@]12CC[C@H](OC)[C@]34C(C([C@H](OC)[C@H]13)[C@]1(OC(C)=O)[C@H]3[C@@H](OC(=O)c5ccccc5)[C@](O)(C[C@H]34)[C@@H](OC)[C@@H]1O)N(C)C2` [Hypaconitine], the Tmax stood at 0.33 h and the half-life is 8.01 ± 2.39 h.

For `O=C(/C=C/c1ccc(O)c(O)c1)O[C@H](Cc1ccc(O)c(O)c1)C(=O)O` [Rosmarinic acid], the Tmax is 0.67 h and the half-life was 5.28 ± 1.35 h.

On to `C[C@@H]1O[C@@H](OC[C@H]2O[C@@H](Oc3c(-c4ccc(O)c(O)c4)oc4cc(O)cc(O)c4c3=O)[C@H](O)[C@@H](O)[C@@H]2O)[C@H](O)[C@H](O)[C@H]1O` [Rutin], for which the Tmax amounted to 0.33 h and the half-life is 5.33 ± 1.27 h.

On to `O=C(/C=C/c1ccc(O)c(O)c1/C=C/c1ccc(O)c(O)c1)O[C@H](Cc1ccc(O)c(O)c1)C(=O)O` [Salvianolic acid A], for which the Tmax stood at 0.17 h and the half-life is 7.5 ± 4.92 h.

A short description of the next data set: Pharmacokinetics of 29 QLQX components in rat plasma by HPLC-MS/MS after intragastric QLQX. The following applies: Sprague-Dawley, rat, in vivo, po, […].
Take `CCN1C[C@]2(COC)[C@H](O)C[C@H](OC)[C@@]34[C@@H]5C[C@@]6(O)[C@H](OC(=O)c7ccccc7)[C@@H]5[C@@](OC(C)=O)([C@@H]([C@H](OC)[C@H]23)[C@@H]14)[C@@H](O)[C@@H]6OC` [Aconitine]: the Tmax came out at 0.33 h and the half-life is 18.4 ± 5.44 h.

Staying with this data set, now noted: Sprague-Dawley, rat, plasma, po, […].
In the case of `COc1ccc(-c2coc3cc(O)ccc3c2=O)cc1` [Formononetin], the Tmax was 0.17 h and the half-life was 5.07 ± 2.13 h.

Consider `CC(C)=CCC[C@](C)(O[C@@H]1O[C@H](CO[C@@H]2O[C@H](CO)[C@@H](O)[C@H](O)[C@H]2O)[C@@H](O)[C@H](O)[C@H]1O)[C@H]1CC[C@]2(C)[C@@H]1[C@H](O)C[C@@H]1[C@@]3(C)CC[C@H](O[C@@H]4O[C@H](CO)[C@@H](O)[C@H](O)[C@H]4O[C@@H]4O[C@H](CO)[C@@H](O)[C@H](O)[C@H]4O)C(C)(C)[C@@H]3CC[C@]12C` [Ginsenoside Rb1], for which the Tmax came out at 0.67 h and the half-life is 9.16 ± 3.18 h.

As for `CC(C)=CCC[C@](C)(O[C@@H]1O[C@H](CO[C@@H]2OC[C@H](O)[C@H](O)[C@H]2O)[C@@H](O)[C@H](O)[C@H]1O)[C@H]1CC[C@]2(C)[C@@H]1[C@H](O)C[C@@H]1[C@@]3(C)CC[C@H](O[C@@H]4O[C@H](CO)[C@@H](O)[C@H](O)[C@H]4O[C@@H]4O[C@H](CO)[C@@H](O)[C@H](O)[C@H]4O)C(C)(C)[C@@H]3CC[C@]12C` [Ginsenoside Rb2], the Tmax is 1.5 ± 0.06 h and the half-life was 10.1 ± 4.53 h.

In the case of `CC(C)=CCC[C@](C)(O[C@@H]1O[C@H](CO[C@@H]2O[C@@H](CO)[C@H](O)[C@H]2O)[C@@H](O)[C@H](O)[C@H]1O)[C@H]1CC[C@]2(C)[C@@H]1[C@H](O)C[C@@H]1[C@@]3(C)CC[C@H](O[C@@H]4O[C@H](CO)[C@@H](O)[C@H](O)[C@H]4O[C@@H]4O[C@H](CO)[C@@H](O)[C@H](O)[C@H]4O)C(C)(C)[C@@H]3CC[C@]12C` [Ginsenoside Rc], the Tmax came out at 0.67 h and the half-life was 4.32 ± 2.1 h.

`CC(C)=CCC[C@](C)(O[C@@H]1O[C@H](CO)[C@@H](O)[C@H](O)[C@H]1O)[C@H]1CC[C@]2(C)[C@@H]1[C@H](O)C[C@@H]1[C@@]3(C)CC[C@H](O[C@@H]4O[C@H](CO)[C@@H](O)[C@H](O)[C@H]4O[C@@H]4O[C@H](CO)[C@@H](O)[C@H](O)[C@H]4O)C(C)(C)[C@@H]3CC[C@]12C` [Ginsenoside Rd]: the Tmax was determined as 0.67 h and the half-life is 5.9 ± 1.14 h.

For the molecule `CC(C)=CCC[C@](C)(O[C@@H]1O[C@H](CO)[C@@H](O)[C@H](O)[C@H]1O)[C@H]1CC[C@]2(C)[C@@H]1[C@H](O)C[C@@H]1[C@@]3(C)CC[C@H](O)C(C)(C)[C@@H]3[C@@H](O[C@@H]3O[C@H](CO)[C@@H](O)[C@H](O)[C@H]3O[C@@H]3O[C@@H](C)[C@H](O)[C@@H](O)[C@H]3O)C[C@]12C` [Ginsenoside Re], the Tmax was 0.67 ± 0.06 h and the half-life was 7.33 ± 3.45 h.

Consider `CC(C)=CCC[C@](C)(O[C@@H]1O[C@H](CO)[C@@H](O)[C@H](O)[C@H]1O)[C@H]1CC[C@]2(C)[C@@H]1[C@H](O)C[C@@H]1[C@@]3(C)CC[C@H](O)C(C)(C)[C@@H]3[C@@H](O[C@@H]3O[C@H](CO)[C@@H](O)[C@H](O)[C@H]3O)C[C@]12C` [Ginsenoside Rg1], for which the Tmax came out at 0.67 h and the half-life is 8.69 ± 3.17 h.

Regarding `O=C(/C=C/c1ccc(O)c2c1[C@H](C(=O)O)[C@@H](c1ccc(O)c(O)c1)O2)O[C@H](Cc1ccc(O)c(O)c1)C(=O)O` [Lithospermic acid], the Tmax was determined as 0.67 h and the half-life was 4.8 ± 0.89 h.

`O=C(O)c1ccc(O)c(O)c1` [Protocatechuic acid]: the Tmax was found to be 0.67 h and the half-life was 8.38 ± 1.02 h.

On to `O=c1c(O)c(-c2ccc(O)c(O)c2)oc2cc(O)cc(O)c12` [Quercetin], for which the Tmax was 0.67 h and the half-life is 5.04 ± 0.98 h.

The data set is the same for the next values; noted with them: rat plasma, QLQX suspension […] intragastrically, mean ± SD.
Take `CC(C)(O)C1CCC(C)(C2C(O)CC3(C)C4CC(OC5OC(CO)C(O)C(O)C5O)C5C(C)(C)C(OC6OCC(O)C(O)C6O)CCC56CC46CCC23C)O1` (centres unmarked) [Astragaloside]: the Tmax amounted to 0.67 ± 0.00 and the t1/2 is recorded as 5.74 ± 0.78.

Take `CCN1C[C@]2(COC)[C@H](O)C[C@H](OC)[C@@]34[C@@H]5C[C@@]6(O)[C@H](OC(=O)c7ccccc7)[C@@H]5[C@@](O)([C@@H]([C@H](OC)[C@H]23)[C@@H]14)[C@@H](O)[C@@H]6OC` [Benzoylaconine]: the Tmax is on record as 1.00 ± 0.00 and the t1/2 was 18.63 ± 7.20.

In the case of `COC[C@@]12CC[C@H](OC)[C@]34C([C@H]([C@H](OC)[C@H]13)[C@]1(O)[C@H]3[C@@H](OC(=O)c5ccccc5)[C@](O)(C[C@H]34)[C@@H](OC)[C@@H]1O)N(C)C2` [Benzoylhypaconine], the Tmax turned out to be 0.67 ± 0.00 and the t1/2 stood at 12.88 ± 3.47.

Regarding `COC[C@]12CN(C)C3[C@@H]4[C@H](OC)[C@H]1[C@@]3([C@@H](OC)C[C@H]2O)[C@@H]1C[C@@]2(O)[C@H](OC(=O)c3ccccc3)[C@@H]1[C@]4(O)[C@@H](O)[C@@H]2OC` [Benzoylmesaconine], the Tmax is recorded as 0.67 ± 0.11 and the t1/2 was 8.23 ± 2.02.

Consider `COC[C@]12CN(C)[C@@H]3[C@@H]4[C@H](OC)[C@H]1[C@@]3([C@@H](OC)C[C@H]2O)[C@@H]1C[C@@]2(O)[C@H](OC(=O)c3ccccc3)[C@@H]1[C@]4(OC(C)=O)[C@@H](O)[C@@H]2OC` [Mesaconitine], for which the Tmax is 0.17 ± 0.06 and the t1/2 was 6.23 ± 1.23.

Assay in another data set: not given
Also noted: unit not given beside the values. The following applies: rat, in vivo, po.
As to `COc1ccc(-c2coc3cc(O[C@@H]4O[C@H](CO)[C@@H](O)[C@H](O)[C@H]4O)ccc3c2=O)cc1O` [Calycosin-7-glucoside], the “AUC0∼t” value amounted to 103.26 ± 47.63 and the “AUC0∼∞” value amounted to 120.71 ± 50.71.

Turning to `O=C(O)[C@H](O)Cc1ccc(O)c(O)c1` [Danshensu], the “AUC0∼t” value is 290.92 ± 68.38 and the “AUC0∼∞” value amounted to 390.90 ± 66.50.

`CC(C)=CCC[C@](C)(O)[C@H]1CC[C@]2(C)[C@@H]1[C@H](O)C[C@@H]1[C@@]3(C)CC[C@H](O[C@@H]4O[C@H](CO)[C@@H](O)[C@H](O)[C@H]4O[C@@H]4O[C@H](CO)[C@@H](O)[C@H](O)[C@H]4O)C(C)(C)[C@@H]3CC[C@]12C` [Ginsenoside Rg3]: the “AUC0∼t” value is given as 67.13 ± 27.93 and the “AUC0∼∞” value came out at 89.81 ± 34.43.

On to `COc1ccc([C@@H]2CC(=O)c3c(O)cc(O[C@@H]4O[C@H](CO[C@@H]5O[C@@H](C)[C@H](O)[C@@H](O)[C@H]5O)[C@@H](O)[C@H](O)[C@H]4O)cc3O2)cc1O` [Hesperidin], for which the “AUC0∼t” value is recorded as 154.32 ± 66.50 and the “AUC0∼∞” value was determined as 187.77 ± 34.98.

Consider `COc1cc(/C=C/C(=O)OCC[N+](C)(C)C)cc(OC)c1O.O=S(=O)([O-])O` [Sinapine bisulfate], for which the “AUC0∼t” value is 3.98 ± 1.21 and the “AUC0∼∞” value is 8.76 ± 2.85.

In the case of Salvianolic acid B, the “AUC0∼t” value was 818.47 ± 249.00 and the “AUC0∼∞” value is given as 980.47 ± 112.07.
